Results reported in PubChem BioAssay (NCI).
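1) Cells in 96-well plates. 2) Compound, 48 h, 5 concentrations. 3) Linear interpolation between surrounding doses. 4) Unreached endpoint = highest concentration. GI50 marks 50% less growth. The concentration for full growth arrest is given as TGI.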

Experiments:
Assay in all cases: DTP human tumour cell line panel, 48 h
[1] = tested on: 786-0 renal
[2] = tested on: A498 renal
[3] = tested on: A549 NSCLC
[4] = tested on: ACHN renal
[5] = tested on: CAKI-1 renal
[6] = tested on: CCRF-CEM leukemia
[7] = tested on: COLO 205 colon
[8] = tested on: DU-145 prostate
[9] = tested on: EKVX NSCLC
[10] = tested on: HCC-2998 colon
[11] = tested on: HCT-116 colon
[12] = tested on: HCT-15 colon
[13] = tested on: HL-60(TB) leukemia
[14] = tested on: HOP-62 NSCLC
[15] = tested on: HOP-92 NSCLC
[16] = tested on: HS 578T breast
[17] = tested on: IGROV1 ovarian
[18] = tested on: K-562 leukemia
[19] = tested on: KM12 colon
[20] = tested on: LOX IMVI melanoma
[21] = tested on: M14 melanoma
[22] = tested on: MALME-3M melanoma
[23] = tested on: MCF7 breast
[24] = tested on: MDA-MB-231 breast
[25] = tested on: MDA-MB-435
[26] = tested on: MOLT-4 leukemia
[27] = tested on: NCI-H226 lung
[28] = tested on: NCI-H23 lung
[29] = tested on: NCI-H460 lung
[30] = tested on: NCI/ADR-RES ovarian
[31] = tested on: OVCAR-3 ovarian
[32] = tested on: OVCAR-4 ovarian
[33] = tested on: OVCAR-5 ovarian
[34] = tested on: OVCAR-8 ovarian
[35] = tested on: PC-3 prostate
[36] = tested on: RPMI-8226 leukemia
[37] = tested on: RXF 393 renal
[38] = tested on: SF-268 CNS
[39] = tested on: SF-295 CNS
[40] = tested on: SF-539 CNS
[41] = tested on: SK-MEL-28 melanoma
[42] = tested on: SK-MEL-5 melanoma
[43] = tested on: SK-OV-3 ovarian
[44] = tested on: SN12C renal
[45] = tested on: SNB-19 CNS
[46] = tested on: SNB-75 CNS
[47] = tested on: SR leukemia
[48] = tested on: SW-620 colon
[49] = tested on: T-47D breast
[50] = tested on: U251 CNS
[51] = tested on: UACC-257 melanoma
[52] = tested on: UACC-62 melanoma
[53] = tested on: UO-31 renal
[54] = tested on: BT-549 breast
[55] = tested on: HT29 colon
[56] = tested on: NCI-H522 lung
[57] = tested on: SK-MEL-2 melanoma
[58] = tested on: TK-10 renal

In the case of `O=C(/C=C/c1cccc(Cl)c1)c1ccccc1`, the GI50 [1] is reported as 10.6 µM, the TGI [1] is reported as 22.8 µM and the GI50 [2] is reported as 10.2 µM. For the same compound, the TGI [2] was 21.9 µM, the GI50 [3] was 14.9 µM and the TGI [3] was 29.3 µM. The GI50 [4] was 10.5 µM, the TGI [4] was 23.3 µM and the GI50 [5] was 2.73 µM. For the same compound, the TGI [5] was 11.5 µM, the GI50 [6] was 3.49 µM and the TGI [6] was 23.2 µM. It also gave a GI50 [7] of 16.8 µM, a TGI [7] of 31.7 µM and a GI50 [8] of 11.7 µM. For the same compound, the TGI [8] was 24.2 µM, the GI50 [9] was 14.8 µM and the TGI [9] was 29.3 µM. For the same compound, the GI50 [10] was 13 µM, the TGI [10] was 26.7 µM and the GI50 [11] was 1.44 µM. For the same compound, the TGI [11] was 2.97 µM, the GI50 [12] was 4.22 µM and the TGI [12] was 22.7 µM. For the same compound, the GI50 [13] was 2.96 µM, the TGI [13] was 6.58 µM and the GI50 [14] was 15.7 µM. The TGI [14] was 29.9 µM, the GI50 [15] was 16.3 µM and the TGI [15] was 32.8 µM. For the same compound, the GI50 [16] was 2.1 µM, the TGI [16] was 7.45 µM and the GI50 [17] was 2.06 µM. The TGI [17] was 6.41 µM, the GI50 [18] was 2.86 µM and the TGI [18] was 18.9 µM. The GI50 [19] was 1.96 µM, the TGI [19] was 4.86 µM and the GI50 [20] was 3.06 µM. It also gave a TGI [20] of 10.8 µM, a GI50 [21] of 3.78 µM and a TGI [21] of 13.5 µM. It also gave a GI50 [22] of 14.4 µM, a TGI [22] of 33.7 µM and a GI50 [23] of 1.68 µM. It also gave a TGI [23] of 10.3 µM, a GI50 [24] of 12.2 µM and a TGI [24] of 28.5 µM. For the same compound, the GI50 [25] was 2 µM, the TGI [25] was 5.43 µM and the GI50 [26] was 4.07 µM. For the same compound, the TGI [26] was 36.4 µM, the GI50 [27] was 14.4 µM and the TGI [27] was 29.6 µM. The GI50 [28] was 14.8 µM, the TGI [28] was 29.6 µM and the GI50 [29] was 4.86 µM. For the same compound, the TGI [29] was 18 µM, the GI50 [30] was 16.3 µM and the TGI [30] was 49.8 µM. The GI50 [31] was 4.09 µM, the TGI [31] was 15.4 µM and the GI50 [32] was 13.6 µM. The TGI [32] was 26.8 µM, the GI50 [33] was 11.2 µM and the TGI [33] was 24.5 µM. The GI50 [34] was 3.32 µM, the TGI [34] was 11.4 µM and the GI50 [35] was 4.13 µM. It also gave a TGI [35] of 22.3 µM, a GI50 [36] of 3.09 µM and a TGI [36] of 9.04 µM. It also gave a GI50 [37] of 12.2 µM, a TGI [37] of 24.8 µM and a GI50 [38] of 11.5 µM. It also gave a TGI [38] of 26.2 µM, a GI50 [39] of 3.88 µM and a TGI [39] of 18 µM. For the same compound, the GI50 [40] was 13.6 µM, the TGI [40] was 28.8 µM and the GI50 [41] was 15.9 µM. The TGI [41] was 30.2 µM, the GI50 [42] was 13.2 µM and the TGI [42] was 26.3 µM. The GI50 [43] was 16.7 µM, the TGI [43] was 30.9 µM and the GI50 [44] was 14.6 µM. The TGI [44] was 28.3 µM, the GI50 [45] was 11.7 µM and the TGI [45] was 25.8 µM. For the same compound, the GI50 [46] was 15.1 µM, the TGI [46] was 28.6 µM and the GI50 [47] was 2.6 µM. It also gave a TGI [47] of 31.5 µM, a GI50 [48] of 1.47 µM and a TGI [48] of 2.97 µM. It also gave a GI50 [49] of 12.7 µM, a TGI [49] of 32.2 µM and a GI50 [50] of 2.67 µM. For the same compound, the TGI [50] was 7.89 µM, the GI50 [51] was 15.1 µM and the TGI [51] was 29 µM. For the same compound, the GI50 [52] was 13.9 µM, the TGI [52] was 27.9 µM and the GI50 [53] was 6.55 µM. For the same compound, the TGI [53] was 21.9 µM.

Compound `NC(=O)c1c(NC(=O)c2ccc(C(F)(F)F)cc2Cl)sc2c1CCC(=O)C2` has a GI50 [1] of 0.475 µM, a TGI [1] of 15.6 µM and a GI50 [2] of 1.95 µM. It also gave a TGI [2] of 6.37 µM, a GI50 [3] of 2.69 µM and a TGI [3] of 14.4 µM. The GI50 [4] was 0.322 µM, the TGI [4] was 1.04 µM and the GI50 [54] was 0.294 µM. It also gave a TGI [54] of 1.91 µM, a GI50 [5] of 0.244 µM and a TGI [5] of 0.881 µM. For the same compound, the GI50 [6] was 0.146 µM, the TGI [6] was > 100 µM and the GI50 [7] was 0.382 µM. It also gave a TGI [7] of 1.49 µM, a GI50 [8] of 3.83 µM and a TGI [8] of 25 µM. It also gave a GI50 [9] of 1.62 µM, a TGI [9] of 4.93 µM and a TGI [10] of 3.36 µM. The GI50 [11] was 0.302 µM, the TGI [11] was 1.42 µM and the GI50 [13] was 0.273 µM. For the same compound, the TGI [13] was 1.09 µM, the GI50 [14] was 1.25 µM and the TGI [14] was > 44.5 µM. The GI50 [15] was 0.426 µM, the TGI [15] was 2.88 µM and the GI50 [16] was 0.368 µM. It also gave a TGI [16] of 5.94 µM, a GI50 [55] of 0.346 µM and a TGI [55] of 1.67 µM. The GI50 [17] was 0.498 µM, the TGI [17] was 2.37 µM and the GI50 [18] was 0.126 µM. The GI50 [19] was 0.382 µM, the TGI [19] was 1.73 µM and the GI50 [20] was 0.383 µM. For the same compound, the TGI [20] was 1.83 µM, the GI50 [21] was 0.355 µM and the TGI [21] was 1.89 µM. The GI50 [22] was 0.292 µM, the TGI [22] was 1.39 µM and the GI50 [23] was 0.279 µM. The TGI [23] was 4.08 µM, the GI50 [25] was 0.393 µM and the TGI [25] was 1.79 µM. For the same compound, the GI50 [26] was 0.361 µM, the TGI [26] was > 100 µM and the GI50 [27] was 1.34 µM. The TGI [27] was 5.85 µM, the GI50 [28] was 0.288 µM and the TGI [28] was 1.68 µM. It also gave a GI50 [29] of 1.29 µM, a TGI [29] of 9.48 µM and a GI50 [56] of 0.186 µM. The TGI [56] was 0.844 µM, the GI50 [30] was 0.448 µM and the TGI [30] was 3.38 µM. The GI50 [31] was 0.369 µM, the TGI [31] was 1.33 µM and the GI50 [33] was 0.468 µM. It also gave a TGI [33] of 2.33 µM, a GI50 [34] of 0.456 µM and a TGI [34] of 12.2 µM. For the same compound, the GI50 [35] was 0.164 µM, the TGI [35] was 1.3 µM and the GI50 [37] was 0.259 µM. For the same compound, the TGI [37] was 0.881 µM, the GI50 [38] was 0.456 µM and the TGI [38] was 15.7 µM. It also gave a GI50 [39] of 1.05 µM, a TGI [39] of 4.5 µM and a GI50 [40] of 0.28 µM. For the same compound, the TGI [40] was 1.04 µM, the GI50 [57] was 1.87 µM and the TGI [57] was 5.37 µM. For the same compound, the GI50 [41] was 0.531 µM, the TGI [41] was 2.04 µM and the GI50 [42] was 0.684 µM. For the same compound, the TGI [42] was 2.08 µM, the GI50 [43] was 2.47 µM and the TGI [43] was 7.56 µM. The GI50 [44] was 0.36 µM, the TGI [44] was 2.04 µM and the GI50 [45] was 0.375 µM. The TGI [45] was 3.96 µM, the GI50 [47] was 0.305 µM and the TGI [47] was > 100 µM. For the same compound, the GI50 [48] was 0.176 µM, the TGI [48] was 1.36 µM and the GI50 [49] was 0.238 µM. The TGI [49] was 4.73 µM, the GI50 [58] was 0.423 µM and the TGI [58] was 4.07 µM. For the same compound, the GI50 [50] was 0.27 µM, the TGI [50] was 1.75 µM and the GI50 [51] was 0.654 µM. The TGI [51] was 3.46 µM, the GI50 [52] was 0.274 µM and the TGI [52] was 1.21 µM. For the same compound, the GI50 [53] was 0.237 µM and the TGI [53] was 0.809 µM.
